Reference: ChEMBL document CHEMBL1909570, “Synthesis and antibacterial activity of N4-mono alkyl derivatives of novel glycopeptide LYV07ww01” (2011)
In brackets after ≈: the same amount, converted by molar mass.

Columns and labels:
Assay type in all cases: functional
Enterococcus faecium [1] = assay: Antibacterial activity against Enterococcus faecium 32220 by CLSI agar microdilution method
Enterococcus faecium [2] = assay: Antibacterial activity against vancomycin-sensitive Enterococcus faecium ATCC 35667 by CLSI agar microdilution method relative to LYV07ww01
Enterococcus faecium [3] = assay: Antibacterial activity against vancomycin-sensitive Enterococcus faecium ATCC 35667 by CLSI agar microdilution method
Streptococcus = assay: Antibacterial activity against Streptococcus gamma 32206 by CLSI agar microdilution method
Enterococcus faecalis [4] = assay: Antibacterial activity against vancomycin-resistant Enterococcus faecalis ATCC 51299 by CLSI agar microdilution method relative to vancomycin
Enterococcus faecalis [5] = assay: microbe, parasite or virus in culture; conditions: ATCC 51299
Staphylococcus aureus [6] = assay: microbe, parasite or virus in culture; conditions: ATCC 33591
Description: Antibacterial activity against methicillin-resistant Staphylococcus aureus ATCC 33591 by CLSI agar microdilution method

[7] = tested on: Staphylococcus epidermidis; assay: Antibacterial activity against Staphylococcus epidermidis 26069 by CLSI agar microdilution method
Streptococcus pneumoniae [8] = assay: Antibacterial activity against penicillin-resistant Streptococcus pneumoniae MSPN 0003 by CLSI broth microdilution method
Staphylococcus = assay: Antibacterial activity against Staphylococcus albus 26101 by CLSI agar microdilution method
Staphylococcus aureus [9] = assay: Antibacterial activity against Staphylococcus aureus 26003 by CLSI agar microdilution method
Streptococcus pneumoniae [10] = assay: Antibacterial activity against penicillin-intermediate Streptococcus pneumoniae ATCC 49619 by CLSI broth microdilution method
Streptococcus pneumoniae [11] = assay: Antibacterial activity against Streptococcus pneumoniae 31002 by CLSI agar microdilution method
Enterococcus faecium [12] = assay: Antibacterial activity against vancomycin-resistant Enterococcus faecium MEFA 0039 by CLSI agar microdilution method
Enterococcus faecalis [13] = assay: microbe, parasite or virus in culture; conditions: ATCC 29212
Description: Antibacterial activity against vancomycin-sensitive Enterococcus faecalis ATCC 29212 by CLSI agar microdilution method

Staphylococcus aureus [14] = assay: microbe, parasite or virus in culture; conditions: ATCC 25923
Description: Antibacterial activity against methicillin-sensitive Staphylococcus aureus ATCC 25923 by CLSI agar microdilution method

Enterococcus faecium [15] = assay: Antibacterial activity against vancomycin-resistant Enterococcus faecium MEFA 0039 by CLSI agar microdilution method relative to vancomycin

| SMILES | MIC (Enterococcus faecium [1]) [µg/mL] | fold change (FC) (Enterococcus faecium [2]) | MIC (Enterococcus faecium [3]) [µg/mL] | MIC (Streptococcus) [µg/mL] | fold change (FC) (Enterococcus faecalis [4]) | MIC (Enterococcus faecalis [5]) [µg/mL] | MIC (Staphylococcus aureus [6]) [µg/mL] | MIC [7] [µg/mL] | MIC (Streptococcus pneumoniae [8]) [µg/mL] | MIC (Staphylococcus) [µg/mL] | MIC (Staphylococcus aureus [9]) [µg/mL] | MIC (Streptococcus pneumoniae [10]) [µg/mL] | MIC (Streptococcus pneumoniae [11]) [µg/mL] | MIC (Enterococcus faecium [12]) [µg/mL] | MIC (Enterococcus faecalis [13]) [µg/mL] | MIC (Staphylococcus aureus [14]) [µg/mL] | fold change (FC) (Enterococcus faecium [15]) |
| --- | --- | --- | --- | --- | --- | --- | --- | --- | --- | --- | --- | --- | --- | --- | --- | --- | --- |
| CN[C@H](CC(C)C)C(=O)N[C@H]1C(=O)N[C@@H](CC(N)=O)C(=O)N[C@H]2C(=O)N[C@H]3C(=O)N[C@H](C(=O)N[C@@H](C(=O)O)c4cc(O)cc(O)c4-c4cc3ccc4O)[C@H](O[C@H]3C[C@](C)(N)[C@H](O)[C@H](C)O3)c3ccc(c(Cl)c3)Oc3cc2cc(c3O[C@@H]2O[C@H](CO)[C@@H](O)[C@H](O)[C@H]2O[C@H]2C[C@](C)(NCc3ccc(Br)cc3)[C@H](O)[C@H](C)O2)Oc2ccc(cc2Cl)[C@H]1O | 1.56 (≈ 0.886 µM) | 4 | ≤ 0.031 | 6.25 (≈ 3.55 µM) | 4 | 0.5 (≈ 0.284 µM) | 0.5 (≈ 0.284 µM) | 6.25 (≈ 3.55 µM) | ≤ 0.031 | 1.56 (≈ 0.886 µM) | 1.56 (≈ 0.886 µM) | ≤ 0.031 | 1.56 (≈ 0.886 µM) | 2 (≈ 1.14 µM) | 0.5 (≈ 0.284 µM) | 1 (≈ 0.568 µM) | – |
| CN[C@H](CC(C)C)C(=O)N[C@H]1C(=O)N[C@@H](CC(N)=O)C(=O)N[C@H]2C(=O)N[C@H]3C(=O)N[C@H](C(=O)N[C@@H](C(=O)O)c4cc(O)cc(O)c4-c4cc3ccc4O)[C@H](O[C@H]3C[C@](C)(N)[C@H](O)[C@H](C)O3)c3ccc(c(Cl)c3)Oc3cc2cc(c3O[C@@H]2O[C@H](CO)[C@@H](O)[C@H](O)[C@H]2O[C@H]2C[C@](C)(NCc3ccccc3Cl)[C@H](O)[C@H](C)O2)Oc2ccc(cc2Cl)[C@H]1O | 1.56 (≈ 0.909 µM) | – | 0.25 (≈ 0.146 µM) | 1.56 (≈ 0.909 µM) | 4 | 0.5 (≈ 0.291 µM) | 0.5 (≈ 0.291 µM) | 6.25 (≈ 3.64 µM) | 0.125 (≈ 0.0728 µM) | 3.13 (≈ 1.82 µM) | 1.56 (≈ 0.909 µM) | ≤ 0.031 | 0.78 (≈ 0.454 µM) | 8 (≈ 4.66 µM) | 0.5 (≈ 0.291 µM) | 1 (≈ 0.582 µM) | 4 |
| CN[C@H](CC(C)C)C(=O)N[C@H]1C(=O)N[C@@H](CC(N)=O)C(=O)N[C@H]2C(=O)N[C@H]3C(=O)N[C@H](C(=O)N[C@@H](C(=O)O)c4cc(O)cc(O)c4-c4cc3ccc4O)[C@H](O[C@H]3C[C@](C)(N)[C@H](O)[C@H](C)O3)c3ccc(c(Cl)c3)Oc3cc2cc(c3O[C@@H]2O[C@H](CO)[C@@H](O)[C@H](O)[C@H]2O[C@H]2C[C@](C)(NCc3ccccc3Br)[C@H](O)[C@H](C)O2)Oc2ccc(cc2Cl)[C@H]1O | 1.56 (≈ 0.886 µM) | – | 0.125 (≈ 0.071 µM) | 0.39 (≈ 0.221 µM) | 4 | 0.5 (≈ 0.284 µM) | 0.5 (≈ 0.284 µM) | > 25 | 0.063 (≈ 0.0358 µM) | 1.56 (≈ 0.886 µM) | 1.56 (≈ 0.886 µM) | ≤ 0.031 | 0.195 (≈ 0.111 µM) | 4 (≈ 2.27 µM) | 0.25 (≈ 0.142 µM) | 1 (≈ 0.568 µM) | 4 |
| CN[C@H](CC(C)C)C(=O)N[C@H]1C(=O)N[C@@H](CC(N)=O)C(=O)N[C@H]2C(=O)N[C@H]3C(=O)N[C@H](C(=O)N[C@@H](C(=O)O)c4cc(O)cc(O)c4-c4cc3ccc4O)[C@H](O[C@H]3C[C@](C)(N)[C@H](O)[C@H](C)O3)c3ccc(c(Cl)c3)Oc3cc2cc(c3O[C@@H]2O[C@H](CO)[C@@H](O)[C@H](O)[C@H]2O[C@H]2C[C@](C)(NCc3ccc(OC)cc3)[C@H](O)[C@H](C)O2)Oc2ccc(cc2Cl)[C@H]1O | 1.56 (≈ 0.911 µM) | – | 0.125 (≈ 0.073 µM) | 1.56 (≈ 0.911 µM) | 4 | 0.5 (≈ 0.292 µM) | 0.5 (≈ 0.292 µM) | 3.13 (≈ 1.83 µM) | 0.125 (≈ 0.073 µM) | 1.56 (≈ 0.911 µM) | 0.78 (≈ 0.455 µM) | 0.063 (≈ 0.0368 µM) | 0.78 (≈ 0.455 µM) | 4 (≈ 2.34 µM) | 0.5 (≈ 0.292 µM) | 1 (≈ 0.584 µM) | 4 |
| CN[C@H](CC(C)C)C(=O)N[C@H]1C(=O)N[C@@H](CC(N)=O)C(=O)N[C@H]2C(=O)N[C@H]3C(=O)N[C@H](C(=O)N[C@@H](C(=O)O)c4cc(O)cc(O)c4-c4cc3ccc4O)[C@H](O[C@H]3C[C@](C)(N)[C@H](O)[C@H](C)O3)c3ccc(c(Cl)c3)Oc3cc2cc(c3O[C@@H]2O[C@H](CO)[C@@H](O)[C@H](O)[C@H]2O[C@H]2C[C@](C)(NCc3cccc(Br)c3)[C@H](O)[C@H](C)O2)Oc2ccc(cc2Cl)[C@H]1O | 0.78 (≈ 0.443 µM) | 4 | ≤ 0.031 | 3.13 (≈ 1.78 µM) | 4 | 0.5 (≈ 0.284 µM) | 0.5 (≈ 0.284 µM) | > 25 | ≤ 0.031 | 0.78 (≈ 0.443 µM) | 0.78 (≈ 0.443 µM) | ≤ 0.031 | 0.78 (≈ 0.443 µM) | 2 (≈ 1.14 µM) | 0.25 (≈ 0.142 µM) | 1 (≈ 0.568 µM) | – |
